We go through 25 molecules from patent US20100311694A1, “Set of Geldanamycin Derivatives and Their Preparation Methods” (Institute of Medicinal Biotechnology, Chinese Academy of …, priority 2008, published 2010).

For test [1], the system named is HIV-1. The experiment in a line: Anti HIV-1 activity (HIV-1 P24 antigen in cell cultures). It is filed as cell-based. The settings on record: 4 days after addition of the reagents. On the procedure: Test Procedure of Anti HIV-1 Activity
8 reagent solutions of different diluted concentrations and positive control solutions are added into cell cultures in 96 well plate respectively. The sample of each diluted solutions is made duplicately and a control cell sample is also is set up. 100 μl of cell sample at a concentration of 2×10^5cells/ml is inoculated into the wells containing reagent in the plate. The cells samples are cultured in a saturated humidity culture chamber (at a 5% CO2 atmosphere) at 37° C. The pathological changes of cells are observed daily.

For test [2], the system named is HBV. The experiment in a line: Anti-HBV activity (HBV DNA in cell lysate, spot hybridization). The test is classed as cell-based. Particulars: HBV DNA content of the cells, reagent solution changed every 4 days. On the procedure:
Test Procedure for Anti-HBV Activity
Using cell culture method, the preparation of the cells to be tested (100,000 cell's/mL) is inoculated into cell culture plate in 100 μl each well and the cells are cultured 24 h at 37° C. in 5% CO2. Tests are carried out when the cells grow into a monolayer. The target compounds as well as the controls are prepared into a series of solutions of appropriate concentrations using the culture medium and are added into 96 well culture plate respectively in 4 wells per one concentration. Then the reagent solution in each well is changed into the fresh reagent solution with the same concentration every 4 days. A cell control without reagent treatment is simultaneously is set up. The observation index is based upon the pathological changes of the cells by observing the degrees of the pathological changes of the cells under microscope every 8 days. […] Cell control without drug treatment is simultaneously is set up. The reagent solution or control medium in each well is changed into the fresh reagent solution or fresh medium respectively every 4 days. After cytolysis of the cells, HBV DNA is extracted from the cell lysis solution according to the molecular cloning technical procedure. The spots of different samples are hybridized and the A values of different hybridized spots are measured using autoradiograghic technique. The HBV DNA contents in the cell control as well as in the drug treated samples are calculated using the regression equations obtained from the standard curves to obtain half effective concentration values, the results are shown in Table 1.

For the molecule `COC1C=CC=C(C)C(=O)NC2=CC(=O)C(NCC(O)c3ccccc3)=C(CC(C)CC(OC)C(O)C(C)C=C(C)C1OC(N)=O)C2=O` (centres unmarked) [GM-W8], the “Activity of HIV inhibition IC50” value in test [1] is 1.22 µg/mL. Besides, in test [2], the “Activity of HBV inhibition IC50” value worked out at 1.32 µg/mL.
`COC1C=CC=C(C)C(=O)NC2=CC(=O)C(NCc3cncc(C)n3)=C(CC(C)CC(OC)C(O)C(C)C=C(C)C1OC(N)=O)C2=O` (centres unmarked) [GM-W2]: the “Activity of HIV inhibition IC50” value in test [1] was 19.6 µg/mL. Moreover, the “Activity of HBV inhibition IC50” value in test [2] is 8.0 µg/mL.
The like results for `COC1C=CC=C(C)C(=O)NC2=CC(=O)C(NCCc3c[nH]c4ccccc34)=C(CC(C)CC(OC)C(O)C(C)C=C(C)C1OC(N)=O)C2=O` (centres unmarked) [GM-W90] were, in that order, 1.23 µg/mL and 0.93 µg/mL.
For `COC1C=CC=C(C)C(=O)NC2=CC(=O)C(NCC3OCCO3)=C(CC(C)CC(OC)C(O)C(C)C=C(C)C1OC(N)=O)C2=O` (centres unmarked) [GM-W29] the same measures were 0.67 µg/mL and 6.4 µg/mL.
On to `COC1C=CC=C(C)C(=O)NC2=CC(=O)C(NCC(O)c3ccccc3)=C(CC(C)CC(OC)C(O)C(C)C=C(C)C1OC(N)=O)C2=O` (centres unmarked) [GM-W9], for which, in test [1], the “Activity of HIV inhibition IC50” value amounted to 2.46 µg/mL. The “Activity of HBV inhibition IC50” value in test [2] came to 3.2 µg/mL.
With `COC1C=CC=C(C)C(=O)NC2=CC(=O)C(NC3CCN(c4ccncc4)CC3)=C(CC(C)CC(OC)C(O)C(C)C=C(C)C1OC(N)=O)C2=O` (centres unmarked) [GM-W38], the “Activity of HIV inhibition IC50” value in test [1] was found to be 1.59 µg/mL. Moreover, the “Activity of HBV inhibition IC50” value in test [2] stood at 0.64 µg/mL.
For `COC1C=CC=C(C)C(=O)NC2=CC(=O)C(NCCc3cccnc3)=C(CC(C)CC(OC)C(O)C(C)C=C(C)C1OC(N)=O)C2=O` (centres unmarked) [GM-W32], in test [1], the “Activity of HIV inhibition IC50” value is 0.48 µg/mL. Further, in test [2], the “Activity of HBV inhibition IC50” value worked out at 6.4 µg/mL.
The like results for `COC1C=CC=C(C)C(=O)NC2=CC(=O)C(NCC(O)CO)=C(CC(C)CC(OC)C(O)C(C)C=C(C)C1OC(N)=O)C2=O` (centres unmarked) [GM-W74] were, in that order, 0.47 µg/mL and 8.9 µg/mL.
As for `CO[C@H]1/C=C/C=C(\C)C(=O)NC2=CC(=O)C(NCCCN3CCCC3=O)=C(C[C@H](C)C[C@H](OC)[C@H](O)[C@@H](C)/C=C(\C)[C@H]1OC(N)=O)C2=O` [GM-226, 17-(3′-(2″-pyrrolidonyl)propylamino)-17-demethoxy geldanamycin], the “Activity of HIV inhibition IC50” value in test [1] is more than 0.14 µg/mL. Besides, the “Activity of HBV inhibition IC50” value in test [2] amounted to 1.6 µg/mL.
The like results for `COC1C=CC=C(C)C(=O)NC2=CC(=O)C(NCc3cccs3)=C(CC(C)CC(OC)C(O)C(C)C=C(C)C1OC(N)=O)C2=O` (centres unmarked) [GM-W50] were, in that order, 1.57 µg/mL and 0.64 µg/mL.
For `COC1C=CC=C(C)C(=O)NC2=CC(=O)C(NC(C)Cc3c[nH]c4ccccc34)=C(CC(C)CC(OC)C(O)C(C)C=C(C)C1OC(N)=O)C2=O` (centres unmarked) [GM-W89] the same measures were 1.68 µg/mL and 2.36 µg/mL.
Regarding `CCN1CCC[C@H]1CNC1=C2C[C@H](C)C[C@H](OC)[C@H](O)[C@@H](C)/C=C(\C)[C@@H](OC(N)=O)[C@@H](OC)/C=C/C=C(\C)C(=O)NC(=CC1=O)C2=O` [GM-206S, 17-(2″S-2″-(N-ethylpyrrolidinyl)-methylamino)-17-demethoxy geldanamycin], the “Activity of HIV inhibition IC50” value in test [1] came out at 0.01 µg/mL. In test [2], the “Activity of HBV inhibition IC50” value amounted to 0.064 µg/mL.
In the case of `COC1C=CC=C(C)C(=O)NC2=CC(=O)C(NCC3CCCNC3)=C(CC(C)CC(OC)C(O)C(C)C=C(C)C1OC(N)=O)C2=O` (centres unmarked) [GM-W23], the “Activity of HIV inhibition IC50” value in test [1] worked out at 0.46 µg/mL. The “Activity of HBV inhibition IC50” value in test [2] was found to be 0.32 µg/mL.
The like results for `COC1C=CC=C(C)C(=O)NC2=CC(=O)C(NCCc3ccccn3)=C(CC(C)CC(OC)C(O)C(C)C=C(C)C1OC(N)=O)C2=O` (centres unmarked) [GM-W18] were, in that order, 33.41 µg/mL and 50.4 µg/mL.
The like results for `COC1C=CC=C(C)C(=O)NC2=CC(=O)C(NCCOC(C)C)=C(CC(C)CC(OC)C(O)C(C)C=C(C)C1OC(N)=O)C2=O` (centres unmarked) [GM-W31] were, in that order, 0.32 µg/mL and 0.32 µg/mL.
For the molecule `COC1C=CC=C(C)C(=O)NC2=CC(=O)C(NCCCC(=O)OCC=C(C)CCC=C(C)CCC=C(C)C)=C(CC(C)CC(OC)C(O)C(C)C=C(C)C1OC(N)=O)C2=O` (centres unmarked) [GM-W85], the “Activity of HIV inhibition IC50” value in test [1] amounted to 0.78 µg/mL. The “Activity of HBV inhibition IC50” value in test [2] was determined as 0.01 µg/mL.
The like results for `COC1C=CC=C(C)C(=O)NC2=CC(=O)C(NCCOS(=O)(=O)O)=C(CC(C)CC(OC)C(O)C(C)C=C(C)C1OC(N)=O)C2=O` (centres unmarked) [GM-W17] were, in that order, 23.47 µg/mL and 10.3 µg/mL.
The like results for `COc1ccc(C=CC(=O)NCCNC2=C3C[C@H](C)C[C@H](OC)[C@H](O)[C@@H](C)/C=C(\C)[C@@H](OC(N)=O)[C@@H](OC)/C=C/C=C(\C)C(=O)NC(=CC2=O)C3=O)cc1OC` [GM-413, 17-(2′-(3″,4″-dimethylcaffeoyl amido)ethylamino)-17-demethoxy geldanamycin] were, in that order, 0.48 µg/mL and 0.32 µg/mL.
For `COC1C=CC=C(C)C(=O)NC2=CC(=O)C(NCCCN3CCCCC3C)=C(CC(C)CC(OC)C(O)C(C)C=C(C)C1OC(N)=O)C2=O` (centres unmarked) [GM-W47] the same measures were 1.84 µg/mL and 3.87 µg/mL.
Consider `COC1C=CC=C(C)C(=O)NC2=CC(=O)C(NCCCN(CCO)CCO)=C(CC(C)CC(OC)C(O)C(C)C=C(C)C1OC(N)=O)C2=O` (centres unmarked) [GM-W43], for which, in test [1], the “Activity of HIV inhibition IC50” value is 0.87 µg/mL. In addition, the “Activity of HBV inhibition IC50” value in test [2] came to 0.64 µg/mL.
For `COC1C=CC=C(C)C(=O)NC2=CC(=O)C(NNC(=O)c3ccco3)=C(CC(C)CC(OC)C(O)C(C)C=C(C)C1OC(N)=O)C2=O` (centres unmarked) [GM-W4] the same measures were 0.33 µg/mL and 3.2 µg/mL.
For the molecule `CO[C@H]1/C=C/C=C(\C)C(=O)NC2=CC(=O)C(NC[C@H]3CCCO3)=C(C[C@H](C)C[C@H](OC)[C@H](O)[C@@H](C)/C=C(\C)[C@H]1OC(N)=O)C2=O` [THFM(R)-GM, 2′R-17-tetrahydrofurfurylamino-17-demethoxy geldanamycin], the “Activity of HIV inhibition IC50” value in test [1] came out at 0.05 µg/mL. Also, the “Activity of HBV inhibition IC50” value in test [2] worked out at 0.01 µg/mL.
As for `COC1C=CC=C(C)C(=O)NC2=CC(=O)C(NC(CO)c3cc(Cl)cc(Cl)c3)=C(CC(C)CC(OC)C(O)C(C)C=C(C)C1OC(N)=O)C2=O` (centres unmarked) [GM-W81], the “Activity of HIV inhibition IC50” value in test [1] amounted to 2.46 µg/mL. Also, the “Activity of HBV inhibition IC50” value in test [2] amounted to 2.3 µg/mL.
`COC1C=CC=C(C)C(=O)NC2=CC(=O)C(Nc3cnc(C)c(C)n3)=C(CC(C)CC(OC)C(O)C(C)C=C(C)C1OC(N)=O)C2=O` (centres unmarked) [GM-W57]: the “Activity of HIV inhibition IC50” value in test [1] turned out to be 13.76 µg/mL. In test [2], the “Activity of HBV inhibition IC50” value came out at 8.0 µg/mL.
As for `COC1C=CC=C(C)C(=O)NC2=CC(=O)C(NCCc3ccc(N)cc3)=C(CC(C)CC(OC)C(O)C(C)C=C(C)C1OC(N)=O)C2=O` (centres unmarked) [GM-W10], the “Activity of HIV inhibition IC50” value in test [1] is 40.71 µg/mL. Moreover, the “Activity of HBV inhibition IC50” value in test [2] amounted to 6.4 µg/mL.
